Data as given in the Kinase Knowledgebase extract (Sharma et al. 2016).

Key:
[1] = target: PIK3CD (Human) (UniProt O00329); assay: Assessment of PIK3CD Kinase Activity
[2] = target: PIK3CG (human) (UniProt P48736); assay: Assessment of PIK3CG Kinase Activity
[3] = target: PIK3CD (Human) (UniProt O00329); assay: Assessment of PIK3CD Kinase Activity in RAJI Cells
[4] = target: PIK3CB (Human) (UniProt P42338); assay: Assessment of PIK3CB Kinase Activity
[5] = target: PIK3CA (human) (UniProt P42336); assay: Assessment of PIK3CA Kinase Activity in SKOV-3 Cells
[6] = target: PIK3CA (human) (UniProt P42336); assay: Assessment of PIK3CA Kinase Activity

Sequence of PIK3CA (human) (P42336 whole entry, looked up): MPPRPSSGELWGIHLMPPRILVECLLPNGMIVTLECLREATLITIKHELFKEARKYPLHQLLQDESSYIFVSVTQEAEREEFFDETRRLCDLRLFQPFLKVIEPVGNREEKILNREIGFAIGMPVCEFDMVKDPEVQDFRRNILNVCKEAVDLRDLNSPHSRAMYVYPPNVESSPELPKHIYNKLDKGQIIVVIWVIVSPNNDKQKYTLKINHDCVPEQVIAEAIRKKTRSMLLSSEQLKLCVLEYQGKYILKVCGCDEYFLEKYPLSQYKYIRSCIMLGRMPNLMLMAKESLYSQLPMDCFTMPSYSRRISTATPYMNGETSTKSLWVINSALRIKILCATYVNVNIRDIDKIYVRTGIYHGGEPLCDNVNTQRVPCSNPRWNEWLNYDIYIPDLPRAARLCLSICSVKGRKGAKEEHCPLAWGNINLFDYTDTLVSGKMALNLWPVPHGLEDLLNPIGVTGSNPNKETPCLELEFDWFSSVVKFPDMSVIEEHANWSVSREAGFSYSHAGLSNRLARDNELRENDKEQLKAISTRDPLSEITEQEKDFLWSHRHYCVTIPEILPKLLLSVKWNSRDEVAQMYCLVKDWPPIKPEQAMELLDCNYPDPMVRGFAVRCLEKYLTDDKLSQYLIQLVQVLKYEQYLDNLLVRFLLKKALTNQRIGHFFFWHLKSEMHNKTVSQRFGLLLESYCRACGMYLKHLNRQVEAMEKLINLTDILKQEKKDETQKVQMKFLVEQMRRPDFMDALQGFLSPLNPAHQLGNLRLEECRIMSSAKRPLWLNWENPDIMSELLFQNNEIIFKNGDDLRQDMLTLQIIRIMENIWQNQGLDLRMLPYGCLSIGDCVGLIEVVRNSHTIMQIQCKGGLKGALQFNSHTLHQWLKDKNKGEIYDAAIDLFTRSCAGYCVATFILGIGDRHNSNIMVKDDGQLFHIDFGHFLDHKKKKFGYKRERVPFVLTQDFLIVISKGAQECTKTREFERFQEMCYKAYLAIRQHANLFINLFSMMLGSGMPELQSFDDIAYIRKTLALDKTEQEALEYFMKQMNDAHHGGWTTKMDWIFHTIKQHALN
Sequence of PIK3CD (Human) (O00329 whole entry, looked up): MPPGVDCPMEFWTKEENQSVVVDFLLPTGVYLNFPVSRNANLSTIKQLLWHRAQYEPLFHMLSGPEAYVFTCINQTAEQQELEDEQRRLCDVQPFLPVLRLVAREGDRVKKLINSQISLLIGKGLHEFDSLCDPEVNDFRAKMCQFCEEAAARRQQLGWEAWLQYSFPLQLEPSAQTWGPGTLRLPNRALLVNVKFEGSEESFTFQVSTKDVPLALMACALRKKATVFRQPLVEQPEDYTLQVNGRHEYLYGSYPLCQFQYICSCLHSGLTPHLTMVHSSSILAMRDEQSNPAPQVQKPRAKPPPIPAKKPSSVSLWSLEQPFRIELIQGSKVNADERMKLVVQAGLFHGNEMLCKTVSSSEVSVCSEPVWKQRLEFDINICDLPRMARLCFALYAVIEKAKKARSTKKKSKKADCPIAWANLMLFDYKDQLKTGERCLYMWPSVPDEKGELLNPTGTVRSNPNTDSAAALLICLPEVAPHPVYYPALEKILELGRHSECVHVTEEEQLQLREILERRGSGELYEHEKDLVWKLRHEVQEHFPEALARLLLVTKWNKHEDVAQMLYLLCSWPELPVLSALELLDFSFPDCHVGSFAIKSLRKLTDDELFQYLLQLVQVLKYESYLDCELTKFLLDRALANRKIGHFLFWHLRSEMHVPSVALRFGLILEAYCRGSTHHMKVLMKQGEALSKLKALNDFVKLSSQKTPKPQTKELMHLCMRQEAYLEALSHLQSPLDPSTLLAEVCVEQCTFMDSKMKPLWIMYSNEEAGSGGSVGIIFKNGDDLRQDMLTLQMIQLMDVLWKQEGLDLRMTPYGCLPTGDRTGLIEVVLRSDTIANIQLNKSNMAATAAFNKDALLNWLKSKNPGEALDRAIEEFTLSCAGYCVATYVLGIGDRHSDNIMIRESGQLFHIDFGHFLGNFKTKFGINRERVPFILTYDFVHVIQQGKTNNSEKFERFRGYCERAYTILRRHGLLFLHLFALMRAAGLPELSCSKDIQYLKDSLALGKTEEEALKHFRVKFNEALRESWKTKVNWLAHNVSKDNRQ
Sequence of PIK3CG (human) (P48736 whole entry, looked up): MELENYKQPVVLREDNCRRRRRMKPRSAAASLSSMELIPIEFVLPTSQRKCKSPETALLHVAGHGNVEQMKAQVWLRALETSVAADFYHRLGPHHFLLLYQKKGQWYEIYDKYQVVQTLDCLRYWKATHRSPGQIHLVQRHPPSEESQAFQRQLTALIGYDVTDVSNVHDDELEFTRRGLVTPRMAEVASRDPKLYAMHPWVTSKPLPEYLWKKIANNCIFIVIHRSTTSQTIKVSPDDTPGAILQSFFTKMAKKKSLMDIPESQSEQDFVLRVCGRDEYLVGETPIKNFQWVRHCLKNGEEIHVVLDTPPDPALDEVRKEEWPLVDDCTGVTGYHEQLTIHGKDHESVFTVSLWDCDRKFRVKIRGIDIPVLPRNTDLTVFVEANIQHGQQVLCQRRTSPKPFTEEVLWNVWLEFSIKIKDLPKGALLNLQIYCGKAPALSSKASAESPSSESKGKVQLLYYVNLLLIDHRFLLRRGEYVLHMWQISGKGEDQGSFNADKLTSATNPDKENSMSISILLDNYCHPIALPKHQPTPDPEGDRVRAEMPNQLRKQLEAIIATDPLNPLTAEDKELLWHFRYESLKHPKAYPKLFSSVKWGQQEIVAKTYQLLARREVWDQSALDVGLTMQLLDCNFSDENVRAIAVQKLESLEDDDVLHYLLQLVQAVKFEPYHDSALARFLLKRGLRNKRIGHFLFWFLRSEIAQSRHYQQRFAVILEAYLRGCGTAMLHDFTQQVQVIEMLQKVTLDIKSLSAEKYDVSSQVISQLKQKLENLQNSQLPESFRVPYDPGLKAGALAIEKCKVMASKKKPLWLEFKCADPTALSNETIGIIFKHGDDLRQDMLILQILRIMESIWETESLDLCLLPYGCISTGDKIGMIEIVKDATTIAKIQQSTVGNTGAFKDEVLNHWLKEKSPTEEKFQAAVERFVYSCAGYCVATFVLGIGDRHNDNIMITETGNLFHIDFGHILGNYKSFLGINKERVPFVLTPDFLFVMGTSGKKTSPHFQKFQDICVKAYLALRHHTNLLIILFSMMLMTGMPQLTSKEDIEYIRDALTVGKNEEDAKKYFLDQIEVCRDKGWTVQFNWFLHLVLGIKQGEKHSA
Sequence of PIK3CB (Human) (P42338 whole entry, looked up): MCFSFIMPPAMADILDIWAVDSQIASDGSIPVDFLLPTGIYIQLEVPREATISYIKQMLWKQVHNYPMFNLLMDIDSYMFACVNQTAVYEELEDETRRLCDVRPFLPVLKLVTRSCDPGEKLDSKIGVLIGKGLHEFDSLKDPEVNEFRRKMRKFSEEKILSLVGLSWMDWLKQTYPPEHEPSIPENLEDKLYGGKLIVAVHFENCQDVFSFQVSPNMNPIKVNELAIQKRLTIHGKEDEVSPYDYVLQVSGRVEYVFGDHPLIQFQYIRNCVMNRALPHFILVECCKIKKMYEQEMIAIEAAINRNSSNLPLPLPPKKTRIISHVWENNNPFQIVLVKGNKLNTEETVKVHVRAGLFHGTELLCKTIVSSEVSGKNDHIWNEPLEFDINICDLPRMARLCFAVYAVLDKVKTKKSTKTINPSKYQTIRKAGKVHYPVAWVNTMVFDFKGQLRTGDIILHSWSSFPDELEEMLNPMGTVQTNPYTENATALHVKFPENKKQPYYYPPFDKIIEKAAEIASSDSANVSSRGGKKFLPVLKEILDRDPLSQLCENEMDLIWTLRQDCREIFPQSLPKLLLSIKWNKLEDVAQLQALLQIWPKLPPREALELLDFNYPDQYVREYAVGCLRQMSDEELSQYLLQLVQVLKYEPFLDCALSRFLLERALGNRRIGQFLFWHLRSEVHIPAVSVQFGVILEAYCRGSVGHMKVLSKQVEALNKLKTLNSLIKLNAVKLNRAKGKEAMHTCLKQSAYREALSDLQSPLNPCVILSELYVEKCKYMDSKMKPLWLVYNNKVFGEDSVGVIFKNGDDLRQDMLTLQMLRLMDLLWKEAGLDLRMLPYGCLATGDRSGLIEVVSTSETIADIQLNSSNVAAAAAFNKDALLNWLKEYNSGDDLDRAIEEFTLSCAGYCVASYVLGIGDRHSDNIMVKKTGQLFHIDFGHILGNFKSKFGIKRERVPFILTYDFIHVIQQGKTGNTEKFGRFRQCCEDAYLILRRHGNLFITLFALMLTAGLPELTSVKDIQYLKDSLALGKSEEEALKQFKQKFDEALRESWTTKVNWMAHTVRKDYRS

SMILES | IC50 [1] | IC50 [2] | IC50 [3] | IC50 [4] | IC50 [5] | IC50 [6]
C[C@H](Nc1ncnc2[nH]cnc12)c1cc2cccc(C(F)(F)F)c2c(=O)n1-c1cccc(F)c1 | < 100 nM | < 100 nM | < 100 nM |  |  | 
COc1ncc(-c2cccc3nc([C@H](C)Nc4nc(N)nc5cccnc45)n(-c4ccccc4)c(=O)c23)cn1 | < 100 nM | < 100 nM | < 100 nM | > 10000 nM |  | 
Cc1ncc(-c2cccc3nc([C@H](C)Nc4nc(N)nc5cccnc45)n(-c4ccccc4)c(=O)c23)cn1 | < 100 nM | < 100 nM | < 100 nM | > 10000 nM |  | 
C[C@H](Nc1nc(N)nc2cccnc12)c1nc2cccc(-c3cnn(C)c3)c2c(=O)n1-c1ccccc1 | < 100 nM | < 100 nM | < 100 nM | > 10000 nM | 100 to 1000 nM | 
CCOC(=O)c1cnc(N[C@@H](C)c2cc3cccc(-c4ccnc(OC)c4)c3c(=O)n2-c2ccccc2)nc1N | > 10000 nM | > 10000 nM |  | > 10000 nM |  | > 10000 nM

Results, then the compound that gave them:

IC50 [1] | IC50 [2] | IC50 [3] | IC50 [4] | IC50 [5] | IC50 [6] | SMILES
< 100 nM | < 100 nM | < 100 nM | > 10000 nM |  |  | C[C@H](Nc1ncnc2cccnc12)c1cc2cccc(-c3cnn(C)c3)c2c(=O)n1-c1ccccc1
100 to 1000 nM |  | < 100 nM |  |  |  | CC(C)n1c([C@H](C)Nc2ncnc3cccnc23)cc2cccc(-c3ccc(=O)n(C)c3)c2c1=O
< 100 nM | < 100 nM |  | < 100 nM |  | 100 to 1000 nM | C[C@H](Nc1nc(N)nc2cccnc12)c1cc2cccc(Cl)c2c(=O)n1-c1ccccc1
